Assay results from patent publication US20020111532A1, “Tris(hydroxymethyl)phosphino compounds as tissue crosslinking agents” (priority 2000, published 2002).

Test: Shrinkage Temperature Assay (differential scanning calorimetric analysis)
Format: physicochemical
Conditions: bovine pericardium crosslinked overnight at room temperature; THPP 10 mg/mL in PBS or 0.25% glutaraldehyde
Method: Tissue Crosslinking: Bovine pericardium tissue was cut into ˜1 cm^2 samples and rinsed in ˜1 L ultrafiltered H2O for about 30 min with stirring. The samples were then rinsed in PBS for an additional 30 min at room temperature with shaking.
Samples were left in solution overnight at room temperature. Samples were then rinsed 5×30 min in ˜200 mL PBS each rinse, and then either tested immediately or stored in 0.01 M HEPES with 40% isopropyl alcohol until testing.
Shrinkage Temperature Assay: The shrinkage temperature of some crosslinked samples was determined using standard differential scanning calorimetric analysis. Briefly, 2-10 mg of tissue was heated at 10° C. increments under nitrogen. Typically, an endotherm is seen in the range of 60° C.-90° C., and this endotherm is attributed to a shrinkage transition.

Shrink Onset Temperature: 86.04 °C
SMILES: O=CCCCC=O [Glutaraldehyde, glutaraldehyde]
